Laboratory results published in the Kinase Knowledgebase extract (Sharma et al. 2016).
pIC50: −log10 of the molar value.

Each compound was assayed against ROCK2 (human) (UniProt O75116) (assay: Assessment of ROCK2 Kinase Activity).
Sequence of ROCK2 (human) (O75116 whole entry, looked up): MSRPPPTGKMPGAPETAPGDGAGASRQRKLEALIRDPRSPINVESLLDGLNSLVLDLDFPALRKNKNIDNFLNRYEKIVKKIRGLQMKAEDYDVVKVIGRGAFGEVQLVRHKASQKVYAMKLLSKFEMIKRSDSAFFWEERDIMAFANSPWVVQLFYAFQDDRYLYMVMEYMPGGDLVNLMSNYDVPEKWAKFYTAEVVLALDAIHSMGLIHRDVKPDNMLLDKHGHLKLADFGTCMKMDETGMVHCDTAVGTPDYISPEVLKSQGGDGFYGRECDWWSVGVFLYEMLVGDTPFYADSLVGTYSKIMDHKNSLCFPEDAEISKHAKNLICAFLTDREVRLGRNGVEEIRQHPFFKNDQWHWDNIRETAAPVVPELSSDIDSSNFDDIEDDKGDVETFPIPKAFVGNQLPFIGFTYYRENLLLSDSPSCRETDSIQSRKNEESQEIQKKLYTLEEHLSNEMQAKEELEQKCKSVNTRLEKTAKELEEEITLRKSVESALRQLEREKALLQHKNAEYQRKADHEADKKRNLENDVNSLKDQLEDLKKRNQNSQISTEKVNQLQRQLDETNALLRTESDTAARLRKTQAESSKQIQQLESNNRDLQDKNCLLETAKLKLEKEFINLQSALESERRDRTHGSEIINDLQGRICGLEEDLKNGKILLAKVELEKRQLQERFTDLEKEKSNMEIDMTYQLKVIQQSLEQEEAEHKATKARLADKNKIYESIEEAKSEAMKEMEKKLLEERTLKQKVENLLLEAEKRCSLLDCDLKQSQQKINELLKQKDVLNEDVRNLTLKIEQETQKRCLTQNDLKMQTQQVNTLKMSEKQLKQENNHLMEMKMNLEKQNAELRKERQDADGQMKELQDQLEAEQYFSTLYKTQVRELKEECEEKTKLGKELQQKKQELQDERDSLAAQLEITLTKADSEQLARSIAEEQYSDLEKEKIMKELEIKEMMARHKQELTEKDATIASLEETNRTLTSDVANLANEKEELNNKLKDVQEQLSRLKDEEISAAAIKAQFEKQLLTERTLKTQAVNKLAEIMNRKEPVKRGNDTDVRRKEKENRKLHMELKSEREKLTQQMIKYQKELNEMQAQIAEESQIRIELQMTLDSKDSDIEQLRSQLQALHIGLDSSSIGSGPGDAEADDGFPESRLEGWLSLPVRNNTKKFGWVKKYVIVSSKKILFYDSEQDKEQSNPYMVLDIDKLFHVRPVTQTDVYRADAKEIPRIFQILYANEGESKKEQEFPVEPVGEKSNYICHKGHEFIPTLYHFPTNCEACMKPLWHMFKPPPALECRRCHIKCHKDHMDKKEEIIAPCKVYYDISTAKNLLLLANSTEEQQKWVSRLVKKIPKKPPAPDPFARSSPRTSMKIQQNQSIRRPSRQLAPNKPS

pIC50, ≥ 6.00:
N[C@@H]1CC[C@H](Oc2ccc3c(=O)[nH]ccc3c2)C1
CN1CCN([C@H]2CC[C@H](Oc3cc4cc[nH]c(=O)c4cc3Cl)CC2)CC1
O=c1[nH]ccc2cc(O[C@H]3CC[C@H](N4CCCC4)CC3)c(Cl)cc12
O=c1[nH]ccc2cc(O[C@H]3CC[C@@H](N4CCOCC4)CC3)c(Cl)cc12
O=C(CCC1CCNCC1)N[C@H]1CC[C@@H](Oc2cc3cc[nH]c(=O)c3cc2Cl)CC1
O=c1[nH]ccc2cc(OC3CCC(N4CCCCC4)CC3)c(Cl)cc12 (centres undefined)
NC1CC(Oc2cc3cc[nH]c(=O)c3cc2Cl)C1 (centres undefined)
NC(=O)C1CCN(C2CCC(Oc3cc4cc[nH]c(=O)c4cc3Cl)CC2)CC1 (centres undefined)
Cc1cc2c(=O)[nH]ccc2cc1O[C@@H]1CCC[C@H](N)CC1
O=C(CC1CCNCC1)N[C@H]1CC[C@@H](Oc2cc3cc[nH]c(=O)c3cc2Cl)CC1
CCC[C@]1(N)CCC[C@H](Oc2cc3cc[nH]c(=O)c3cc2Cl)CCC1
O=C(O)CN[C@H]1CC[C@@H](Oc2cc3cc[nH]c(=O)c3cc2Cl)CC1
O=c1[nH]ccc2cc(O[C@H]3CC[C@@H](N4CCCC4)CC3)c(Cl)cc12
CCC[C@]1(N)CCC[C@@H](Oc2cc3cc[nH]c(=O)c3cc2Cl)CCC1
N[C@H]1C[C@H](COc2cc3cc[nH]c(=O)c3cc2Cl)C1
CN1CCN([C@H]2CC[C@@H](Oc3cc4cc[nH]c(=O)c4cc3Cl)CC2)CC1
O=c1[nH]ccc2cc(O[C@H]3CC[C@H](N4CCOCC4)CC3)c(Cl)cc12
N[C@H]1CCC[C@@H](Oc2cc3cc[nH]c(=O)c3cc2Cl)CC1
N[C@H]1CC[C@H](Oc2cc3cc[nH]c(=O)c3cc2Cl)C1
